Assay results: PMC9571063 (Molecules, 2022)
Where a name gives a salt, the structure may show the parent alone. Read-outs that look alike come from different tables or passages of the source.

How the values were obtained:
[1] = cytotoxic assay, nuclei count (Hoechst, HCS); format: cell-based; details: human, HuH7 cells (hepatocellular carcinoma); 48 h treatment; read-out: Cytotoxic studies IC50 HuH7
[2] = cytotoxic assay, nuclei count (Hoechst, HCS); format: cell-based; details: human, 48 h treatment
Method: (§1) To complete our study, we performed a cytotoxicity screening of the 15 molecules, investigating 7 representative cancer cell lines. The compound’s effect on cell viability was evaluated on Huh-7 (hepatocellular carcinoma), CaCo2, HCT-116 (colorectal adenocarcinoma), MCF7, MDA-MB231, MDA-MB468 (breast carcinoma), PC3 (prostate carcinoma) and NCI-H727 (lung carcinoid). Human skin fibroblasts were used as reference for non-cancerous cells. Roscovitine, Doxorubicin and Taxol were used as positive controls. The cells were treated for 48 h with 25 µM compounds and fixed in cooled 90% ethanol/5% acetic acid for 20 min. The nuclei were stained with Hoechst 33342 and counted using HCS technology.
(§2) HuH7, CaCo-2, MDA-MB-231, HCT116, PC3, MCF7 and NCI-H727 cancer cell lines were obtained from the ECACC collection (Porton Down, UK). Cells were grown at 37 °C, 5% CO2 in ECACC recommended media: DMEM for HuH7, MDA-MB-231 and fibroblast, EMEM for MCF7and CaCo-2, McCoy’s for HCT116 and RPMI for PC3 and NCI-H727. All culture media were supplemented with 10% of FBS, 1% of penicillin-streptomycin and 2 mM glutamine.
(§3) Chemicals were solubilized in DMSO at a concentration of 10 mM (stock solution) and diluted in culture medium to the desired final concentrations.
[…] Cells were plated in 96 wells plates (4000 cells/well). Twenty-four hours after seeding, cells were exposed to chemicals. After 48 h of treatment, cells were washed in PBS and fixed in cooled 90% ethanol/5% acetic acid for 20 min and the nuclei were stained with Hoechst 33342 (B2261 Sigma). Image acquisition and analysis were performed using a CellomicsArrayScan VTI/HCS Reader (ThermoScientific, Waltham, MA, USA). The survival percentages were calculated as the percentage of cell number after compound treatment over cell number after DMSO treatment.

HsDYRK1A = target: T1, HsDYRK1A (Homo sapiens, UniProt Q13627); assay: ADP-Glo kinase assay; format: biochemical; details: for remaining activity at 1 µM / remaining activity at 10 µM: n=2, read-out: % of residual activity Hs_DYRK1A
T1 construct: host or cells: Sf9 insect cells (baculovirus)

Rn_DYRK1A = target: T2, Rn_DYRK1A (Rattus norvegicus, UniProt Q63470); assay: ADP-Glo kinase assay, primary screen; format: biochemical; details: n=2, read-out: % of residual activity Rn_DYRK1A
T2 construct: host or cells: bacteria

Hs_CK1ε = target: T3, Hs_CK1ε (Homo sapiens, UniProt P49674); assay: ADP-Glo kinase assay, primary screen; format: biochemical; details: n=2, read-out: % of residual activity Hs_CK1ε
T3 construct: host or cells: Sf9 insect cells (baculovirus)
T3 sequence (P49674 whole entry): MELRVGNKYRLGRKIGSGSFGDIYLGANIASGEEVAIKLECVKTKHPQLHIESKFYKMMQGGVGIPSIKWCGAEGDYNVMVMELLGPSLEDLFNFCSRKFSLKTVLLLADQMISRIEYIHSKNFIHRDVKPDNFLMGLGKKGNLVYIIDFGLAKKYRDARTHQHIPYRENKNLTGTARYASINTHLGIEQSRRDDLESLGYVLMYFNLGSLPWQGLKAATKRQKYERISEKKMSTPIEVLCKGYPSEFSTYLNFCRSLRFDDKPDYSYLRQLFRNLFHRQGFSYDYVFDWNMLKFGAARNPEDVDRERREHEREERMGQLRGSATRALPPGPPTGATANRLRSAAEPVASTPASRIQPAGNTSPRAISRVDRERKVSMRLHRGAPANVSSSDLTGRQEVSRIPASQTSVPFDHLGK

Hs_CDK5/p25 = target: T4, Hs_CDK5/p25 (Homo sapiens, UniProt Q00535); assay: ADP-Glo kinase assay, primary screen; format: biochemical; details: n=2, read-out: % of residual activity Hs_CDK5/p25
T4 construct: host or cells: bacteria
T4 sequence (Q00535 whole entry): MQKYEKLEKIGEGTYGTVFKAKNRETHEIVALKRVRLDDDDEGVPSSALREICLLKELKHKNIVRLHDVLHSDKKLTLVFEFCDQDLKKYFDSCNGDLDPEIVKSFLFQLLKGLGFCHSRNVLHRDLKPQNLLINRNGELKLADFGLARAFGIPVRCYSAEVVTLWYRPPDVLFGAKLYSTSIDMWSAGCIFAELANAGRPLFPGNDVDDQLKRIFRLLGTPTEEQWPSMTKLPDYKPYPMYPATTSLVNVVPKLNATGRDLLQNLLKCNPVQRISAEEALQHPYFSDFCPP
T4 sequence (Q15078 99-307 partner limits assumed): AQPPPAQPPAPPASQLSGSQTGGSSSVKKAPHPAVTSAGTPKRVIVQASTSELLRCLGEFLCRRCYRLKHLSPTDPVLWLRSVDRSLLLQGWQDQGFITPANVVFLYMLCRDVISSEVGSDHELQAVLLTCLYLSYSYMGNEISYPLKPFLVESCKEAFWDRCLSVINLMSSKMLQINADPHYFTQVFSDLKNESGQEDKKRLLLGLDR

[3] = cytotoxic assay, nuclei count (Hoechst, HCS); format: cell-based, human; details: human, human skin fibroblasts (non-cancerous reference cells); 48 h treatment; some cells add low/moderate/high amplitude; read-out: Cytotoxic studies IC50 Fibroblasts
Method: as §1, §2, §3
(§4) The cytotoxic assay of chemical was performed at 25 µM. Cells were plated in 96 wells plates (4000 cells/well). Twenty-four hours after seeding, cells were exposed to chemicals. After 48 h of treatment, cells were washed in PBS and fixed in cooled 90% ethanol/5% acetic acid for 20 min and the nuclei were stained with Hoechst 33342 (B2261 Sigma). Image acquisition and analysis were performed using a CellomicsArrayScan VTI/HCS Reader (ThermoScientific, Waltham, MA, USA). The survival percentages were calculated as the percentage of cell number after compound treatment over cell number after DMSO treatment.

Human skin fibroblasts = assay: cytotoxic assay, nuclei count (Hoechst, HCS); format: cell-based; details: summary of Table S2
Method: as §1, §2, §3, §4

HsCLK1 = target: T5, HsCLK1 (Homo sapiens, UniProt P49759); assay: ADP-Glo kinase assay; format: biochemical
T5 construct: host or cells: Sf9 insect cells (baculovirus)
T5 sequence (P49759 whole entry): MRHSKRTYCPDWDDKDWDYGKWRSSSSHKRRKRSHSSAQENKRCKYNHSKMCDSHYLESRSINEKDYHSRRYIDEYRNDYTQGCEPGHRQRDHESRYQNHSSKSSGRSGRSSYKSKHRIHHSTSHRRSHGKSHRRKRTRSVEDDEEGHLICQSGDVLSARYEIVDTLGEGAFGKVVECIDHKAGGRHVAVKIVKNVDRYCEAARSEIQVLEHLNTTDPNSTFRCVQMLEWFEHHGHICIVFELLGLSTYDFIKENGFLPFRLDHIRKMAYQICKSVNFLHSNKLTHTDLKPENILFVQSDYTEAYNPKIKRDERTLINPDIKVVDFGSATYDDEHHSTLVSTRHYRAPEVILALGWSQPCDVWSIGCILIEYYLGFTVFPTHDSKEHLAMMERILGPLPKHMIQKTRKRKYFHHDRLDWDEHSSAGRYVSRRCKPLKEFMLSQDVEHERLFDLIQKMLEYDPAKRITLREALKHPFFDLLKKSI

Hs_HASPIN = target: T6, Hs_HASPIN (Homo sapiens, UniProt Q8TF76); assay: ADP-Glo kinase assay, primary screen; format: biochemical; details: n=2, read-out: % of residual activity Hs_HASPIN
T6 construct: host or cells: bacteria
T6 sequence (Q8TF76 1-798): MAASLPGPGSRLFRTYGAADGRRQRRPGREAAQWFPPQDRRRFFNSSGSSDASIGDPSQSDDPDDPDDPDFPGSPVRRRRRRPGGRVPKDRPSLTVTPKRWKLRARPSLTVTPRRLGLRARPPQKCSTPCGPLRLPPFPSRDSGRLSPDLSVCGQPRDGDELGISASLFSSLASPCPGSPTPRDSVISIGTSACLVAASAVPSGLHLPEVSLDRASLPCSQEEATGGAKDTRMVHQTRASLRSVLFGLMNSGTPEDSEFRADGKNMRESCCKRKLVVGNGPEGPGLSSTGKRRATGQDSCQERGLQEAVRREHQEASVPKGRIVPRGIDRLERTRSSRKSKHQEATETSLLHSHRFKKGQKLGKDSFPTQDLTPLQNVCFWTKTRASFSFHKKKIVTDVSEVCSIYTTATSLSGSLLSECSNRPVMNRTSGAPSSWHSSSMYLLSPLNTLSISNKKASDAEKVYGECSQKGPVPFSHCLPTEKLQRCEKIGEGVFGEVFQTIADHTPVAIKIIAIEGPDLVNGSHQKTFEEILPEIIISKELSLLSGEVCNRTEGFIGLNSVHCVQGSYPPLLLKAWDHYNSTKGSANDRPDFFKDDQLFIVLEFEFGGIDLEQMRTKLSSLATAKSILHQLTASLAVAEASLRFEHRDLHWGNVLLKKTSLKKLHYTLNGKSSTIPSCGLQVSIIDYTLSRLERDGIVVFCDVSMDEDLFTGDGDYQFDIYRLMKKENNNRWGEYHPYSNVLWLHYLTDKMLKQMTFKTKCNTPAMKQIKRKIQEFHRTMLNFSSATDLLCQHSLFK

Hs_GSK3β = target: T7, Hs_GSK3β (Homo sapiens, UniProt P49841); assay: ADP-Glo kinase assay, primary screen; format: biochemical; details: n=2, read-out: % of residual activity Hs_GSK3β
T7 construct: host or cells: Sf9 insect cells (baculovirus)
T7 sequence (P49841 whole entry): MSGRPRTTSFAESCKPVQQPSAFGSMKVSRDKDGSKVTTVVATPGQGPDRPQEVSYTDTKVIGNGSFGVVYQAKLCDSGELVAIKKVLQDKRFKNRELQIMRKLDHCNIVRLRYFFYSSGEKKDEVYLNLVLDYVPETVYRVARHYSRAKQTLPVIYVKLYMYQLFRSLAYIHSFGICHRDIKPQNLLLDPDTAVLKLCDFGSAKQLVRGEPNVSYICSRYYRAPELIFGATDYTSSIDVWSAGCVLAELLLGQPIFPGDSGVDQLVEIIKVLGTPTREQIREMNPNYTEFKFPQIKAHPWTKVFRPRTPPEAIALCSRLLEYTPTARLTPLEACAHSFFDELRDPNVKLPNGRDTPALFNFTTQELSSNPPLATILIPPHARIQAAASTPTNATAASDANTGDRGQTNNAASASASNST

MmCLK1 = target: T8, MmCLK1 (Mus musculus, UniProt P22518); assay: ADP-Glo kinase assay; format: biochemical; details: for remaining activity at 1 µM / remaining activity at 10 µM: n=2, read-out: % of residual activity Mm_CLK1; for IC50: mouse CLK1 orthologue, read-out: IC50 MmCLK1
T8 construct: host or cells: bacteria
T8 sequence (P22518 whole entry): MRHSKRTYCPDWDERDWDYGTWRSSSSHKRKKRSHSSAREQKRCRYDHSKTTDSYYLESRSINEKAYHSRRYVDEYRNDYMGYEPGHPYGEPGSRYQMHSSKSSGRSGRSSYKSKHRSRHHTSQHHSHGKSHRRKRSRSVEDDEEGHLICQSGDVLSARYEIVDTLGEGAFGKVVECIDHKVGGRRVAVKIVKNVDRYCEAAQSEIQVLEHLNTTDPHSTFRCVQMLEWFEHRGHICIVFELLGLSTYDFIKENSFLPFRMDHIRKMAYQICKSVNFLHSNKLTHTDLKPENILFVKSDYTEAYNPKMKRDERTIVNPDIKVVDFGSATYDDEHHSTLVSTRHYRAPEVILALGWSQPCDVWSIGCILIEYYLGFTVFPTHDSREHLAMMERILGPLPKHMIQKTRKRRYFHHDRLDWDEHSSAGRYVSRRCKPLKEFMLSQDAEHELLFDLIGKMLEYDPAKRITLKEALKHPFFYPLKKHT

[4] = cytotoxic assay, nuclei count (Hoechst, HCS); format: cell-based; details: human, MCF7 cells (breast carcinoma); 48 h treatment; read-out: Cytotoxic studies IC50 MCF7
Method: as §1, §2, §3, §4

Hs_CDK9/CyclinT = target: T9, Hs_CDK9/CyclinT (Homo sapiens, UniProt P50750); assay: ADP-Glo kinase assay, primary screen; format: biochemical; details: n=2, read-out: % of residual activity Hs_CDK9/CyclinT
T9 construct: host or cells: Sf9 insect cells (baculovirus)
T9 sequence (P50750 whole entry): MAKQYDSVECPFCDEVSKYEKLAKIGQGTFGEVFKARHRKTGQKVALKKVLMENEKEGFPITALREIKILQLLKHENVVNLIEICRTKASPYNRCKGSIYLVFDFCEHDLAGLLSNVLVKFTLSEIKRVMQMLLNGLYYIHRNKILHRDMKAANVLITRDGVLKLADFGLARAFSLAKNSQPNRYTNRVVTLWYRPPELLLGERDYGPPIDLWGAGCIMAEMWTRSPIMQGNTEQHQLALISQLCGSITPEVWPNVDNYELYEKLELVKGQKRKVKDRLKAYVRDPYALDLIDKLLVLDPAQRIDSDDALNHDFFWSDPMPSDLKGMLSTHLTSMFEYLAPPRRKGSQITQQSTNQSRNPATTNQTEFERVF
T9 sequence (O60563 whole entry partner): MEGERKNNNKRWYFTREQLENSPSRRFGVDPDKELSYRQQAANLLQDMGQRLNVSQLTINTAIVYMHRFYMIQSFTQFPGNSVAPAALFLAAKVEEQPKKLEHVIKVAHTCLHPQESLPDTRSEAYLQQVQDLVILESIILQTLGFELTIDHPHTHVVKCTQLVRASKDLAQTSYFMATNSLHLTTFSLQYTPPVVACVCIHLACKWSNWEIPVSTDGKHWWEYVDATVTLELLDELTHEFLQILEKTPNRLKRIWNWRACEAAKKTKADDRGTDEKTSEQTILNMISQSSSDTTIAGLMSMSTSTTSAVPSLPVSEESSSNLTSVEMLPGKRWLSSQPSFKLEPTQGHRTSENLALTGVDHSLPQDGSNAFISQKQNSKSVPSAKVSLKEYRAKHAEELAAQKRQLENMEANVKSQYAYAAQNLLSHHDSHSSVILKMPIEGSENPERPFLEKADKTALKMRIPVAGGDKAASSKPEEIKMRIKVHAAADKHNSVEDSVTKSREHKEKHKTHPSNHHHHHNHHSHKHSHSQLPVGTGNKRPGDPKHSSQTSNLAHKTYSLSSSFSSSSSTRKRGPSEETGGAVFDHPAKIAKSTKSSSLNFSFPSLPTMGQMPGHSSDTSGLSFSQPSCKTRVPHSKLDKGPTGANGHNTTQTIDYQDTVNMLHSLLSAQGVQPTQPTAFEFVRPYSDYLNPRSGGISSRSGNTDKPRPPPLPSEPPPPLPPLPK

[5] = cytotoxic assay, nuclei count (Hoechst, HCS); format: cell-based; details: human, MDA-MB-231 cells (breast carcinoma); 48 h treatment; read-out: Cytotoxic studies IC50 MDA-MB-231
Hs_PIM1 = target: T10, Hs_PIM1 (Homo sapiens, UniProt P11309); assay: ADP-Glo kinase assay, primary screen; format: biochemical; details: n=2, read-out: % of residual activity Hs_PIM1
T10 construct: host or cells: Sf9 insect cells (baculovirus)
T10 sequence (P11309 whole entry): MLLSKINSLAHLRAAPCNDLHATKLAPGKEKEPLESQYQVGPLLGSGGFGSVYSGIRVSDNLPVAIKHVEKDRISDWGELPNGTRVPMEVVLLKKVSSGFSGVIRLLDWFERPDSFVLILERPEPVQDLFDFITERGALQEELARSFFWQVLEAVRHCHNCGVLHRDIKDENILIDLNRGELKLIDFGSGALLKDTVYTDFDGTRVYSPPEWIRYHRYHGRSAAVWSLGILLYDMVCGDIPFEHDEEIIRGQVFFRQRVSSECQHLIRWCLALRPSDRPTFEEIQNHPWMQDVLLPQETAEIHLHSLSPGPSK

[6] = cytotoxic assay, nuclei count (Hoechst, HCS); format: cell-based; details: human, Caco-2 cells (colorectal adenocarcinoma); 48 h treatment; read-out: Cytotoxic studies IC50 Caco2
[7] = HCT116 cells (colorectal adenocarcinoma), read-out: Cytotoxic studies IC50 HCT116
[8] = MDA-MB-468 cells (breast carcinoma), read-out: Cytotoxic studies IC50 MDA-MB-468

Structure (SMILES)	IC50 at 48 h [1]	IC50 at 48 h [2, 7]	IC50 at 48 h [2, 8]	remaining activity at 1 µM (HsDYRK1A)	remaining activity at 10 µM (HsDYRK1A)	remaining activity at 1 µM (Rn_DYRK1A)	remaining activity at 10 µM (Rn_DYRK1A)	remaining activity at 1 µM (Hs_CK1ε)	remaining activity at 10 µM (Hs_CK1ε)	remaining activity at 1 µM (Hs_CDK5/p25)	remaining activity at 10 µM (Hs_CDK5/p25)	IC50 at 48 h [3]	remaining activity at 1 µM (Hs_HASPIN)	remaining activity at 10 µM (Hs_HASPIN)	remaining activity at 1 µM (Hs_GSK3β)	remaining activity at 10 µM (Hs_GSK3β)	remaining activity at 1 µM (MmCLK1)	remaining activity at 10 µM (MmCLK1)	IC50 (MmCLK1)	IC50 at 48 h [4]	further results
Cc1ccc(-n2cc(COc3cccc4cnc(Nc5ccccc5)nc34)nn2)c([N+](=O)[O-])c1 [7a, N-Phenyl-8-((1-(4-methyl-2-nitrophenyl)-1H-1,2,3-triazol-4-yl)methoxy)quinazolin-2-amine]	3 µM	7 µM	> 25 µM	≥ 100%	92%	56%	90%	93%	89%	≥ 100%	65%	> 25 µM	95%	94%	87%	70%	43%	30%	0.466 µM	7 µM	toxicity towards fibroblasts (Human skin fibroblasts): non-toxic; IC50 (HsCLK1; 10 µM ATP, duplicate, read-out: IC50 HsCLK1): 1.1 µM; times less active than DB18 on human CLK1 (HsCLK1; ratio of IC50 1100 and […] nM): 100 times; remaining activity at 1 µM (Hs_CDK9/CyclinT): 55%; remaining activity at 10 µM (Hs_CDK9/CyclinT): 45%; IC50 at 48 h [5]: 9 µM; remaining activity at 1 µM (Hs_PIM1): 81%; remaining activity at 10 µM (Hs_PIM1): 60%
O=[N+]([O-])c1cc(O)ccc1-n1cc(COc2cccc3cnc(Nc4cccc(Cl)c4)nc23)nn1 [12c, N-(3-Chlorophenyl)-8-((1-(4-hydroxy-2-nitrophenyl)-1H-1,2,3-triazol-4-yl)methoxy)quinazolin-2-amine]	5 µM	1.3 µM	4 µM	≥ 100%	60%	81%	45%	94%	81%	71%	30%	6 µM	83%	88%	89%	60%	36%	20%	0.177 µM	9 µM	IC50 at 48 h [6]: 24 µM; toxicity towards fibroblasts (Human skin fibroblasts): moderate toxicity; remaining activity at 1 µM (Hs_CDK9/CyclinT): 58%; remaining activity at 10 µM (Hs_CDK9/CyclinT): 39%; IC50 at 48 h [5]: 19 µM; remaining activity at 1 µM (Hs_PIM1): 59%; remaining activity at 10 µM (Hs_PIM1): 68%
N[C@H]1CC[C@H](n2cc(COc3cccc4cnc(Nc5cc(Cl)cc(Cl)c5)nc34)nn2)CC1 [19b, 8-((1-((trans)-4-Aminocyclohexyl)-1H-1,2,3-triazol-4-yl)methoxy)-N-(3,5-dichlorophenyl)quinazolin-2-amine hydrochloride]	14 µM	4 µM	1.3 µM	≥ 100%	55%	92%	92%	63%	20%	≥ 100%	42%	3 µM	95%	90%	44%	15%	12%	7%	0.21 µM	3 µM	IC50 (HsDYRK1A; 10 µM ATP, duplicate): 5.44 µM; IC50 at 48 h [6]: 3 µM; remaining activity at 1 µM (Hs_CDK9/CyclinT): 91%; remaining activity at 10 µM (Hs_CDK9/CyclinT): 42%; IC50 at 48 h [5]: 2 µM; remaining activity at 1 µM (Hs_PIM1): 79%; remaining activity at 10 µM (Hs_PIM1): 44%
